# Patent US10835513B2, “Methods and treatments for the learning and memory deficits associated with Noonan syndrome” (The Regents of the University of California, priority 2013, dated 2020)
# Tested on: Pyramidal neurons in CA1
# Experiment: Whole-cell voltage clamp recordings (AMPA:NMDA ratio, mEPSC) in AAV-PTPN11^D61G-infected hippocampi
# Assay type: cell-based, mice
# Conditions: SL327 1 μM; for AMPA:NMDA current ratio: 1 hr
# Experimental: FIG. 4 are graphs showing PTPN11^D61G overexpression enhances excitatory synaptic function through increased Ras-Erk signaling. Panel a) AMPA receptor-mediated currents were measured at the peak of the currents at −65 mV, and NMDA currents were measured 50 ms after onset at +40 mV. The average of 15 traces is shown. Scale, 100 pA and 40 ms. Panel b) Group data showing the increased AMPA:NMDA current ratio in AAV-PTPN11^D61G mice (1.51±0.11, n=10 cells from 5 mice) compared with AAV-GFP mice (0.96±0.05, n=10 cells from 5 mice, t-test, ***P<0.001). […] Two-way ANOVA, interaction between viral treatment and drug, F(1, 31)=10.53, **P<0.01. […] Panel c) Paired-pulse facilitation ratio is unaffected by PTPN11^D61G. There was no significant difference at 25 ms or 50 ms intervals between two groups (AAV-PTPN11^D61G, n=12 cells from 5 mice; AAV-GFP, n=11 cells from 5 mice). Repeated-measures ANOVA, F(1, 21)=0.010, P=0.921. Panel d) PTPN11^D61G overexpression increases excitatory synaptic function. mEPSC frequency was increased in AAV-PTPN11^D61G-infected mice compared with AAV-GFP mice, and was reversed by SL327 (1 μM) treatment without affecting on the AAV-GFP group. mEPSC frequency: GFP/Veh, 1.50±0.53, n=9; PTPN11^D61G/Veh, 4.64±0.94, n=9; GFP/SL327, 1.28±0.19, n=7; PTPN11^D61G/SL327, 2.02±0.32, n=9; Two-way ANOVA with viral treatment as between-subjects factor, F(1, 30)=10.31, **P<0.01. […] Two-way ANOVA with viral treatment as between-subjects factor, F(1, 30)=0.470, P=0.498. Scale, 20 pA and 200 ms. Panel e) Excitatory synaptic function is increased in Ptpn11^D61G/+ mice and reversed by SL327 treatment. mEPSC frequency was increased in Ptpn11^D61G/+ mice compared with WT littermates, and was reversed by SL327 (1 μM) treatment. mEPSC frequency: WT/Veh, 2.68±0.55, n=9; Ptpn11^D61G/+/Veh, 5.71±0.56, n=10; WT/SL327, 2.46±0.63, n=9; Ptpn11^D61G/+/SL327, 2.87±1.02, n=9; Two-way ANOVA with genotype as between-subjects factor, F(1, 33)=5.914, *P<0.05. […] Two-way ANOVA with genotype as between-subjects factor, F(1, 33)=0.418, P=0.839. Scale, 20 pA and 200 ms.
# We examined the electrophysiological mechanism underlying the LTP impairment in AAV-PTPN11^D61G-infected mice. Increases in Ras signaling are known to facilitate AMPA receptor trafficking to the surface membrane^20. For example, expression of constitutively active Ras enhances AMPA receptor-mediated currents in hippocampal neurons and impairs LTP^20. […]
# Whole-cell voltage clamp recordings were done with an Axopatch 200B amplifier (Axon Instrument) as previously described^29, 30. […] For mEPSC recordings, voltage clamp recordings were performed at −60 mV in the presence of 100 μM picrotoxin and 1 μM TTX. mIPSCs were measured at +10 mV in the presence of 1 mM kynurenic acid and 1 μM TTX. […]
compound,measurement,setting,value
N#C/C(=C(/N)Sc1ccc(N)cc1)c1ccccc1C(F)(F)F [SL327],mEPSC frequency,AAV-GFP mice,1.28±0.19
same,mEPSC frequency,AAV-PTPN11^D61G-infected mice,2.02±0.32
same,AMPA:NMDA current ratio,GFP group,1.08±0.07
same,AMPA:NMDA current ratio,PTPN11^D61G group,1.07±0.11
